Tests used:
Assay in all cases: relative viability (nuclei count vs DMSO), 5 days (fraction); higher = more cells survive
NCI-H1792 = tested on: NCI-H1792
In short: (§1)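 Lung cancer cell lines in 1536-well plates were dosed by pin tool the day after seeding, either with one drug alone or with a fixed anchor-drug dose plus five library-drug doses (not always all listed) in √10 steps. After 5 days, cells were fixed and their nuclei stained in one step (final 0.05% Triton X-100, 1% formaldehyde, 1 ug/ml Hoechst), then counted on 4× images. Relative viability is the nuclei count in treated wells divided by that in vehicle wells. Values are medians of duplicate plates.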

LC-2-ad = tested on: LC-2-ad
In short: as §1

NCI-H2085 = tested on: NCI-H2085
In short: as §1

LXF-289 = tested on: LXF-289
In short: as §1

NCI-H460 = tested on: NCI-H460
In short: as §1

NCI-H1944 = tested on: NCI-H1944
In short: as §1

HCC-78 = tested on: HCC-78
In short: as §1

LU99A = tested on: LU99A
In short: as §1

NCI-H1755 = tested on: NCI-H1755
In short: as §1

COR-L 105 = tested on: COR-L 105
In short: as §1

NCI-H1975 = tested on: NCI-H1975
In short: as §1

HCC-366 = tested on: HCC-366
In short: as §1

EPLC-272H = tested on: EPLC-272H
In short: as §1

A-427 = tested on: A-427
In short: as §1

NCI-H1915 = tested on: NCI-H1915
In short: as §1

NCI-H358 = tested on: NCI-H358
In short: as §1

HOP-62 = tested on: HOP-62
In short: as §1

LCLC-97TM1 = tested on: LCLC-97TM1
In short: as §1

SK-LU-1 = tested on: SK-LU-1
In short: as §1

NCI-H1793 = tested on: NCI-H1793
In short: as §1

UMC-11 = tested on: UMC-11
In short: as §1

Oc1nc(-c2ccc(C(F)(F)F)cc2)nc2c1CSCC2 [XAV939] + C[C@]1(O)C[C@@H](c2nc(-c3ccc4ccc(-c5ccccc5)nc4c3)c3c(N)nccn32)C1 [Linsitinib] (partner 1 µM)
relative viability (NCI-H1792; first compound 0.08 µM): 0.672 | relative viability (NCI-H1792; first compound 0.253 µM): 0.537 | relative viability (NCI-H1792; first compound 0.8 µM): 0.557 | relative viability (NCI-H1792; first compound 2.53 µM): 0.453 | relative viability (LC-2-ad; first compound 0.08 µM): 0.873 | relative viability (LC-2-ad; first compound 0.253 µM): 0.797 | relative viability (LC-2-ad; first compound 0.8 µM): 0.819 | relative viability (LC-2-ad; first compound 2.53 µM): 0.73 | relative viability (NCI-H2085; first compound 0.08 µM): 0.811 | relative viability (NCI-H2085; first compound 0.253 µM): 0.771 | relative viability (NCI-H2085; first compound 0.8 µM): 0.91 | relative viability (NCI-H2085; first compound 2.53 µM): 0.888 | relative viability (LXF-289; first compound 0.08 µM): 0.991 | relative viability (LXF-289; first compound 0.253 µM): 0.954 | relative viability (LXF-289; first compound 0.8 µM): 0.975 | relative viability (LXF-289; first compound 2.53 µM): 0.952 | relative viability (NCI-H460; first compound 0.08 µM): 0.988 | relative viability (NCI-H460; first compound 0.253 µM): 0.651 | relative viability (NCI-H460; first compound 0.8 µM): 0.959 | relative viability (NCI-H460; first compound 2.53 µM): 0.778 | relative viability (NCI-H1944; first compound 0.08 µM): 1.22 | relative viability (NCI-H1944; first compound 0.253 µM): 1.12 | relative viability (NCI-H1944; first compound 0.8 µM): 1.24 | relative viability (NCI-H1944; first compound 2.53 µM): 1.26 | relative viability (HCC-78; first compound 0.08 µM): 0.59 | relative viability (HCC-78; first compound 0.253 µM): 0.448 | relative viability (HCC-78; first compound 0.8 µM): 0.616 | relative viability (HCC-78; first compound 2.53 µM): 0.443 | relative viability (LU99A; first compound 0.08 µM): 0.556 | relative viability (LU99A; first compound 0.253 µM): 0.446 | relative viability (LU99A; first compound 0.8 µM): 0.505 | relative viability (LU99A; first compound 2.53 µM): 0.44 | relative viability (NCI-H1755; first compound 0.08 µM): 0.975 | relative viability (NCI-H1755; first compound 0.253 µM): 0.865 | relative viability (NCI-H1755; first compound 0.8 µM): 0.969 | relative viability (NCI-H1755; first compound 2.53 µM): 0.921 | relative viability (COR-L 105; first compound 0.08 µM): 1 | relative viability (COR-L 105; first compound 0.253 µM): 0.98 | relative viability (COR-L 105; first compound 0.8 µM): 0.868 | relative viability (COR-L 105; first compound 2.53 µM): 0.561 | relative viability (NCI-H1975; first compound 0.08 µM): 0.854 | relative viability (NCI-H1975; first compound 0.253 µM): 0.711 | relative viability (NCI-H1975; first compound 0.8 µM): 0.97 | relative viability (NCI-H1975; first compound 2.53 µM): 0.673 | relative viability (HCC-366; first compound 0.08 µM): 0.626 | relative viability (HCC-366; first compound 0.253 µM): 0.5 | relative viability (HCC-366; first compound 0.8 µM): 0.605 | relative viability (HCC-366; first compound 2.53 µM): 0.596 | relative viability (EPLC-272H; first compound 0.08 µM): 1.3 | relative viability (EPLC-272H; first compound 0.253 µM): 1.08 | relative viability (EPLC-272H; first compound 0.8 µM): 1.18 | relative viability (EPLC-272H; first compound 2.53 µM): 1.09 | relative viability (A-427; first compound 0.08 µM): 1.02 | relative viability (A-427; first compound 0.253 µM): 1.12 | relative viability (A-427; first compound 0.8 µM): 1.08 | relative viability (A-427; first compound 2.53 µM): 1.08 | relative viability (NCI-H1915; first compound 0.08 µM): 1.13 | relative viability (NCI-H1915; first compound 0.253 µM): 1.11 | relative viability (NCI-H1915; first compound 0.8 µM): 1.04 | relative viability (NCI-H1915; first compound 2.53 µM): 1.11 | relative viability (NCI-H358; first compound 0.08 µM): 0.832 | relative viability (NCI-H358; first compound 0.253 µM): 0.551 | relative viability (NCI-H358; first compound 0.8 µM): 0.655 | relative viability (NCI-H358; first compound 2.53 µM): 0.558 | relative viability (HOP-62; first compound 0.08 µM): 1.01 | relative viability (HOP-62; first compound 0.253 µM): 0.882 | relative viability (HOP-62; first compound 0.8 µM): 0.954 | relative viability (HOP-62; first compound 2.53 µM): 0.939 | relative viability (LCLC-97TM1; first compound 0.08 µM): 0.192 | relative viability (LCLC-97TM1; first compound 0.253 µM): 0.19 | relative viability (LCLC-97TM1; first compound 0.8 µM): 0.206 | relative viability (LCLC-97TM1; first compound 2.53 µM): 0.167 | relative viability (SK-LU-1; first compound 0.08 µM): 1.2 | relative viability (SK-LU-1; first compound 0.253 µM): 1.03 | relative viability (SK-LU-1; first compound 0.8 µM): 1.02 | relative viability (SK-LU-1; first compound 2.53 µM): 1.07 | relative viability (NCI-H1793; first compound 0.08 µM): 0.964 | relative viability (NCI-H1793; first compound 0.253 µM): 0.709 | relative viability (NCI-H1793; first compound 0.8 µM): 0.774 | relative viability (NCI-H1793; first compound 2.53 µM): 0.719 | relative viability (UMC-11; first compound 0.08 µM): 1.25 | relative viability (UMC-11; first compound 0.8 µM): 0.952 | relative viability (UMC-11; first compound 2.53 µM): 0.854

— the supplement of paper PMC10307832
